How the values were obtained:
[1] = system: P. falciparum line 106/1^76I,352R; details: 106/1^76I,352R (76I,352R-PfCRT^K1); IC50 in line divided by IC50 in drug-sensitive reference strain; cited from earlier work
PfCRT^K1 [2] = details: oocytes; cited from earlier work
[3] = system: P. falciparum line 106/1^76I; details: 106/1^76I (76I-PfCRT^K1); IC50 in line divided by IC50 in drug-sensitive reference strain; cited from earlier work
[4] = system: P. falciparum isolate HON; details: HON (PfCRT^3D7); IC50 in line divided by IC50 in drug-sensitive reference strain; cited from earlier work
[5] = system: P. falciparum line 106/1^76I,369F; details: 106/1^76I,369F (76I,369F-PfCRT^K1); IC50 in line divided by IC50 in drug-sensitive reference strain; cited from earlier work
[6] = system: P. falciparum line 106/1^76N; details: 106/1^76N (76N-PfCRT^K1); IC50 in line divided by IC50 in drug-sensitive reference strain; cited from earlier work
P. falciparum 106/1 = details: 106/1 (76K-PfCRT^K1); IC50 in line divided by IC50 in drug-sensitive reference strain; cited from earlier work
P. falciparum line K1AM = details: K1AM (163R,356V-PfCRT^K1); IC50 in line divided by IC50 in drug-sensitive reference strain; cited from earlier work
[7] = system: P. falciparum line 106/1^76I,352K; details: 106/1^76I,352K (76I,352K-PfCRT^K1); IC50 in line divided by IC50 in drug-sensitive reference strain; cited from earlier work
[8] = system: P. falciparum line 106/1^72R,76I; details: 106/1^72R,76I (72R,76I-PfCRT^K1); IC50 in line divided by IC50 in drug-sensitive reference strain; cited from earlier work
noninjected oocytes = test: Trans-stimulation of [3H]CQ uptake by microinjected compound in oocytes; type: cell-based, Xenopus laevis; details: microinjected amantadine
Protocol: (§1) A subset of experiments measured the ability of unlabeled amantadine to trans-stimulate the uptake of [^3H]CQ into the oocyte. Immediately prior to the commencement of the experiment, the oocytes (days 3–4 post-injection of the cRNA) were microinjected with either amantadine (estimated intracellular concentrations of 1, 2.5, 5, 10, 15, or 20 mM) or a control treatment (buffer, spermine, or histidine; the estimated intracellular concentrations of spermine and histidine were 5 and 10 mM). The volume injected was 50 nL and the intracellular concentrations were calculated using previous estimates of the volume of stage V-VI oocytes (~400 nL [77]). The resealed oocytes were then incubated at 16–18°C in OR^2+ buffer for approximately 5 min and the influx of [^3H]CQ was measured as described above. […] The Michaelis-Menten equation was then fitted to the data to derive the kinetic parameters for the trans-stimulation of [^3H]CQ transport by amantadine.

76I,369F-PfCRT^K1 [9] = molecular target: T1, 76I,369F-PfCRT^K1 (Plasmodium falciparum, UniProt Q9N623, A220S/K76I/M74I/N326S/N75E/Q271E/R371I/V369F); test: Inhibition of PfCRT-mediated [3H]CQ transport in oocytes; type: cell-based; details: via 76I,369F-PfCRT^K1 in oocytes
T1 sequence (Q9N623 whole entry A220S/K76I/M74I/N326S/N75E/Q271E/R371I/V369F): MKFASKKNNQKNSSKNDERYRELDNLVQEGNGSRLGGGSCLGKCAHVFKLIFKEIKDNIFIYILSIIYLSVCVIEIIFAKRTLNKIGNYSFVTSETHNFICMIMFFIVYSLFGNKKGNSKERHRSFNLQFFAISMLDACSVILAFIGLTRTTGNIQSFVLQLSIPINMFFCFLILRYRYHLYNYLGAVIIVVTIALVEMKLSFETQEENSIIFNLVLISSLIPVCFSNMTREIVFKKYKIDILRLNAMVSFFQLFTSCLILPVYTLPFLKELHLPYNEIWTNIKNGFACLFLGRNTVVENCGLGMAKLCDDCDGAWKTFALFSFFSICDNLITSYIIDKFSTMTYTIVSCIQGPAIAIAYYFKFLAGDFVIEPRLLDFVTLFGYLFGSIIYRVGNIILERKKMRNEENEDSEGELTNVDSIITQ
Protocol: (§2) For each treatment, 10 oocytes were transferred to a 5 mL polystyrene round bottom tube (Falcon) and washed twice with 3.5 mL of ND96 buffer, with the residual buffer removed by pipette. […] The assay was terminated by removing the reaction buffer with a pipette and washing the oocytes twice with 3.5 mL of ice-cold ND96 buffer. Each oocyte was transferred to a separate well of a white 96-well plate (NUNC or PerkinElmer), incubated overnight at room temperature in 30 μL of 10% SDS, and mixed on an orbital shaker the following day for approximately 5 min. The lysed oocyte was then combined with 150 μL of MicroScint-40 microscintillant (PerkinElmer), the plate covered with a TopSeal-A (PerkinElmer), and the radioactivity measured with a PerkinElmer MicroBeta^2 microplate liquid scintillation analyzer.
(§3) The IC50 values presented in Fig 3A were determined in SigmaPlot by a least-squares fit of the equation y = y min + [(y max—y min)/(1 + ([inhibitor]/IC50)c] to the data, where y is PfCRT-mediated CQ transport, y min and y max are the minimum and maximum values of y, and c is a fitted constant. PfCRT-mediated CQ transport was calculated by subtracting the uptake measured in the control oocytes (oocytes expressing 76K PfCRT^K1) from that in oocytes expressing 76I-PfCRT^K1 or 76I,369F-PfCRT^K1.

76I-PfCRT^K1 [10] = molecular target: T2, 76I-PfCRT^K1 (Plasmodium falciparum, UniProt Q9N623, A220S/K76I/M74I/N326S/N75E/Q271E/R371I); test: as above; type: cell-based; details: via 76I-PfCRT^K1 in oocytes
T2 sequence (Q9N623 whole entry A220S/K76I/M74I/N326S/N75E/Q271E/R371I): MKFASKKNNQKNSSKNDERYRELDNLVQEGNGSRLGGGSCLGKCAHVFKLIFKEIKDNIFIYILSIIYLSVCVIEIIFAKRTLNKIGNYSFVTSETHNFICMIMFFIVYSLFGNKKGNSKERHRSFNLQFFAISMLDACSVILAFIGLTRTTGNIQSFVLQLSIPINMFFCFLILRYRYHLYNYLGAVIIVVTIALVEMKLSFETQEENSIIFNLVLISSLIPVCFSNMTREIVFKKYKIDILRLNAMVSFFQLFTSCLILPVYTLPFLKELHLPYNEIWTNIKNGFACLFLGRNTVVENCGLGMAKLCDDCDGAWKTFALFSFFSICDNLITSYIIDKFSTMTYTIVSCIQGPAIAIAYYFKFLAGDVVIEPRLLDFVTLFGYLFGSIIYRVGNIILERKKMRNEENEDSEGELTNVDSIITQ
Protocol: as §2, §3

76I,369F-PfCRT^K1 [11] = molecular target: T1, 76I,369F-PfCRT^K1; test: Trans-stimulation of [3H]CQ uptake by microinjected compound in oocytes; type: cell-based
Protocol: as §1

76I-PfCRT^K1 [12] = molecular target: T2, 76I-PfCRT^K1; test: as above; type: cell-based
Protocol: as §1

PfNT1 = PfNT1 (Plasmodium falciparum, UniProt Q8IDM6); test: as above; type: cell-based; details: oocytes expressing PfNT1, microinjected amantadine
PfNT1, sequence (Q8IDM6 whole entry): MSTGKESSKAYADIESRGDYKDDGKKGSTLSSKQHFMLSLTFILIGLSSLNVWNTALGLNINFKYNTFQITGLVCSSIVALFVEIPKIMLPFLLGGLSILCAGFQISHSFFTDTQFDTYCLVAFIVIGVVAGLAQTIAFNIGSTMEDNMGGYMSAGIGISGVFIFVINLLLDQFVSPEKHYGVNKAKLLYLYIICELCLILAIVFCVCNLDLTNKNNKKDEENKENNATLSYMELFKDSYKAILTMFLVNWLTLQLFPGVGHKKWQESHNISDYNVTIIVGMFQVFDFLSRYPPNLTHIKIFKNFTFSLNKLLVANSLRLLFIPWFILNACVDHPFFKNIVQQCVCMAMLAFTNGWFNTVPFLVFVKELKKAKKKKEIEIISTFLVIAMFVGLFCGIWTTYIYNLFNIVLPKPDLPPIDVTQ
Protocol: as §1

PfCRT^Dd2 = test: as above; type: cell-based, Plasmodium falciparum; details: oocytes expressing PfCRT^Dd2 microinjected with unlabeled amantadine
Protocol: as §1

PfCRT^K1 [13] = test: as above; type: cell-based, Plasmodium falciparum
Protocol: as §1

76K-PfCRT^K1 = test: as above; type: cell-based, Plasmodium falciparum; details: oocytes expressing 76K-PfCRT^K1, microinjected amantadine
Protocol: as §1

PfCRT^3D7 = test: as above; type: cell-based, Plasmodium falciparum; details: oocytes expressing PfCRT^3D7, microinjected amantadine
Protocol: as §1

Which results are given for `CCN(CC)CCCC(C)Nc1ccnc2cc(Cl)ccc12` (centres unmarked) [CQ, chloroquine]?
Drug susceptibility (In vitro resistance index) [1]: 1.58 ± 0.02; CQ transport activity of PfCRT^K1, higher than that of PfCRT^Dd2 (PfCRT^K1 [2]): ~ 20%; Drug susceptibility (In vitro resistance index) [3]: 15.66 ± 2.20; Drug susceptibility (In vitro resistance index) [4]: 1; Drug susceptibility (In vitro resistance index) [5]: 3.53; Drug susceptibility (In vitro resistance index) [6]: 8.60 ± 0.90; Drug susceptibility (In vitro resistance index) (P. falciparum 106/1): 1.10 ± 0.06; Drug susceptibility (In vitro resistance index) (P. falciparum line K1AM): 0.95; Drug susceptibility (In vitro resistance index) [7]: 0.91 ± 0.09; Drug susceptibility (In vitro resistance index) [8]: 1.13 ± 0.07

What does the source list for `NC12CC3CC(CC(C3)C1)C2` [amantadine]?
effect on accumulation of [3H]CQ (trans-stimulation) (noninjected oocytes): did not affect; IC50 (76I,369F-PfCRT^K1 [9]): 174 ± 26 µM; IC50 (76I-PfCRT^K1 [10]): 186 ± 16 µM; Hill coefficient (trans-stimulation of [3H]CQ uptake) (76I,369F-PfCRT^K1 [11]; 76I,369F-PfCRT^K1): 1.46 ± 0.05; increase in the rate of CQ influx (trans-stimulation) (76I,369F-PfCRT^K1 [11]; oocytes expressing 76I,369F-PfCRT^K1 microinjected with unlabeled amantadine): 0.43 ± 0.02 pmol per oocyte/h; Hill coefficient (trans-stimulation of [3H]CQ uptake) (76I-PfCRT^K1 [12]; 76I-PfCRT^K1): 1.49 ± 0.07; increase in the rate of CQ influx (trans-stimulation) (76I-PfCRT^K1 [12]; oocytes expressing 76I-PfCRT^K1 microinjected with unlabeled amantadine): 0.68 ± 0.04 pmol per oocyte/h; effect on accumulation of [3H]CQ (trans-stimulation) (PfNT1): did not affect; increase in the rate of CQ influx (trans-stimulation) (PfCRT^Dd2): 6.7 ± 0.3 pmol per oocyte/h; Hill coefficient (trans-stimulation of [3H]CQ uptake) (PfCRT^K1 [13]; PfCRT^K1): 1.63 ± 0.12; increase in the rate of CQ influx (trans-stimulation) (PfCRT^K1 [13]; oocytes expressing PfCRT^K1 microinjected with unlabeled amantadine): 6.4 ± 0.2 pmol per oocyte/h; effect on accumulation of [3H]CQ (trans-stimulation) (76K-PfCRT^K1): did not affect; effect on accumulation of [3H]CQ (trans-stimulation) (PfCRT^3D7): did not affect

— PMC4956231, “Molecular Mechanisms for Drug Hypersensitivity Induced by the Malaria Parasite’s Chloroquine Resistance Transporter” (PLoS Pathogens, 2016)
